Our source for the GI50 and TGI values is PubChem BioAssay (NCI).

“And” between values parts separate entries of the source, which are not always exact repeats. Equal entries are not always repeated.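 Growth conditions: 96-well plates. Treatment: test compound, 48 hours, 5 concentrations. Analysis: linear interpolation between bracketing concentrations; unreached endpoints set to highest concentration. GI50 is the concentration that inhibits growth by half. Definition used: TGI = concentration required for complete inhibition of growth.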 *1 amine or outer side, *2 acyl side, *3 side chain or, on linkers, in order; H or OH if unused. Where a SMILES comes first, the peptide text is derived from it. CO = O=C([*:1])[*:2]

Among the test systems are MDA-MB-435; HCT-116 colon; HT29 colon; SK-MEL-28 melanoma; SK-MEL-5 melanoma; SN12C renal; ACHN renal; NCI-H23 lung.
What all share (test): NCI anticancer screen, dose series, 48 h

Turning to `C/C(=C\c1ccn(-c2ccc(N)cc2C(F)(F)F)n1)[C@@H]1C[C@@H]2O[C@]2(C)CCC[C@H](C)[C@H](O)[C@@H](C)C(=O)C(C)(C)[C@@H](O)CC(=O)O1`, the GI50 was 0.0599 µM in the experiment with MDA-MB-435; 0.201 µM in the experiment with HCT-116 colon; 0.117 µM with HT29 colon; 1.06 µM in the experiment with SK-MEL-28 melanoma; 0.356 µM in the experiment with SK-MEL-5 melanoma; 1.57 µM with SN12C renal. The GI50 in the experiment on ACHN renal was 0.512 µM; in the experiment on NCI-H23 lung, 0.548 µM. In addition, the TGI in the experiment on MDA-MB-435 is 0.286 µM; in the experiment on HCT-116 colon it was over 11.1 µM; in the experiment with HT29 colon, 0.996 µM; with SK-MEL-28 melanoma it was over 11.1 µM; in the experiment on SK-MEL-5 melanoma, over 11.1 µM; in the experiment with SN12C renal, over 11.1 µM. For the same compound, the TGI in the experiment with ACHN renal and in the experiment on NCI-H23 lung was over 11.1 µM in each case.

For the compound `CN1CCN(Cc2ccc(NC(=O)c3[nH]ncc3Nc3ccnc4ccsc34)cc2)CC1`, the GI50 was 3.22 µM in the experiment with MDA-MB-435; 1.51 µM with HCT-116 colon; 2.04 µM in the experiment with HT29 colon; 5.23 µM in the experiment with SK-MEL-28 melanoma; 2.48 µM in the experiment with SK-MEL-5 melanoma; 2.78 µM in the experiment with SN12C renal. The GI50 with ACHN renal is 2.66 µM; in the experiment with NCI-H23 lung it was 2.03 µM. Also, the TGI turned out to be 17.9 µM with MDA-MB-435; 11.7 µM with HCT-116 colon; 33.8 µM in the experiment on HT29 colon; 18.4 µM in the experiment with SK-MEL-28 melanoma; 11.5 µM in the experiment on SK-MEL-5 melanoma; 14.4 µM in the experiment on SN12C renal. Also, the TGI is 9.9 µM in the experiment on ACHN renal and 6.64 µM in the experiment with NCI-H23 lung.

For `Cc1cc(-c2cc(C)c(O)c(C(C)(C)C)c2)cc(C(C)(C)C)c1O`, the TGI with MDA-MB-435 was 26.4 µM and 28 µM; with HCT-116 colon it was 19.5 µM and 22.8 µM; with HT29 colon, 12.7 µM and 16.4 µM; in the experiment with SK-MEL-28 melanoma, 24.5 µM and 34.2 µM; with SK-MEL-5 melanoma it was 22.3 µM and 28.2 µM; in the experiment with SN12C renal, 24.8 µM and 26.2 µM. For the same compound, the TGI in the experiment on ACHN renal was 22.4 µM and 29.1 µM; with NCI-H23 lung, 26.2 µM and 24.7 µM.

On to `O=C(c1cccs1)c1c(C(F)(F)F)n([O-])c2cc(C(F)(F)F)ccc2[n+]1=O`, for which the GI50 is 0.315 µM with MDA-MB-435; 0.0575 µM in the experiment with HCT-116 colon; 0.193 µM in the experiment with HT29 colon; 0.694 µM with SK-MEL-28 melanoma; 0.314 µM in the experiment with SK-MEL-5 melanoma; 0.2 µM in the experiment on SN12C renal. The GI50 in the experiment on ACHN renal is 0.159 µM; with NCI-H23 lung, 0.348 µM. Further, the TGI in the experiment with MDA-MB-435 was 0.877 µM; with HCT-116 colon it was 0.176 µM; in the experiment on HT29 colon it was 0.419 µM; with SK-MEL-28 melanoma, 2.09 µM; in the experiment with SK-MEL-5 melanoma it was 0.723 µM; in the experiment on SN12C renal, 0.408 µM. The TGI in the experiment with ACHN renal turned out to be 0.303 µM; with NCI-H23 lung, 1.27 µM.

As for `CC(C)C(NC(=O)C(CCCN=C(N)N)NC(=O)NC(Cc1ccccc1)C(=O)O)C(=O)NC(C=O)CCCN=C(N)N` (stereo not drawn) ({Phe-CO}-Arg-Val-Arg-aldehyde; configuration not given here), the GI50 with MDA-MB-435, in the experiment with HCT-116 colon, in the experiment on HT29 colon, in the experiment with SK-MEL-28 melanoma, in the experiment on SK-MEL-5 melanoma and with SN12C renal was over 5 µM in each case. Further, the GI50 with ACHN renal and with NCI-H23 lung was over 5 µM throughout. Moreover, the TGI with MDA-MB-435, in the experiment with HCT-116 colon, in the experiment with HT29 colon, with SK-MEL-28 melanoma, with SK-MEL-5 melanoma and with SN12C renal was over 5 µM each time. Also, the TGI in the experiment on ACHN renal and in the experiment with NCI-H23 lung was over 5 µM in each case.

In the case of `COc1cc(-c2ccc(-[n+]3nc(-c4ccc([N+](=O)[O-])cc4)nn3-c3ccc([N+](=O)[O-])cc3)c(OC)c2)ccc1-[n+]1nc(-c2ccc([N+](=O)[O-])cc2)nn1-c1ccc([N+](=O)[O-])cc1`, the GI50 in the experiment on MDA-MB-435 was 2.51 µM; in the experiment with HCT-116 colon, 3.38 µM; with HT29 colon, 3.43 µM; in the experiment with SK-MEL-28 melanoma it was 18 µM; in the experiment with SK-MEL-5 melanoma, 4.28 µM; in the experiment on SN12C renal it was 7.05 µM. Moreover, the figures for the GI50 with ACHN renal and in the experiment on NCI-H23 lung were 4.16 µM and 3.76 µM, respectively. Further, the TGI is 6.62 µM in the experiment on MDA-MB-435; over 31.6 µM with HCT-116 colon; 15.2 µM with HT29 colon; 64.4 µM with SK-MEL-28 melanoma; 23.6 µM in the experiment on SK-MEL-5 melanoma; 40.3 µM in the experiment with SN12C renal. Further, the TGI in the experiment on ACHN renal was determined as 19.2 µM; in the experiment on NCI-H23 lung, 47.1 µM.

`O=C(Nc1cccc(-c2nc3ccccc3[nH]2)c1)c1cccc(NC(=O)c2ccco2)c1`: the GI50 was 1.67 µM in the experiment with MDA-MB-435; 1.74 µM in the experiment on HCT-116 colon; 1.91 µM with HT29 colon; 1.75 µM in the experiment with SK-MEL-28 melanoma; 1.89 µM in the experiment on SK-MEL-5 melanoma; 2.07 µM in the experiment on SN12C renal. The GI50 was 1.68 µM in the experiment with ACHN renal and 2.15 µM in the experiment on NCI-H23 lung. Moreover, the TGI in the experiment with MDA-MB-435 came out at 3.04 µM; with HCT-116 colon it was 3.11 µM; in the experiment with HT29 colon it was 3.4 µM; in the experiment with SK-MEL-28 melanoma, 3.31 µM; with SK-MEL-5 melanoma, 4.1 µM; in the experiment with SN12C renal it was 4.88 µM. Besides, the TGI in the experiment on ACHN renal came to 3.17 µM; with NCI-H23 lung, 4.94 µM.

In the case of `CCOC(=O)c1ccc(C(O)CC(=O)OC(C)(C)C)[nH]1` (stereo unspecified), the GI50 in the experiment with MDA-MB-435 is 24.1 µM; with HCT-116 colon it was 23.2 µM; in the experiment with HT29 colon it was 59 µM; in the experiment on SK-MEL-28 melanoma, 35.7 µM; in the experiment with SK-MEL-5 melanoma, 27.3 µM; in the experiment with SN12C renal it was 17.4 µM. Moreover, the GI50 in the experiment on ACHN renal was 41.5 µM; in the experiment with NCI-H23 lung it was 44.4 µM. For the same compound, the TGI is 62.2 µM in the experiment on MDA-MB-435; 68.4 µM in the experiment with HCT-116 colon; over 100 µM in the experiment with HT29 colon; over 100 µM in the experiment with SK-MEL-28 melanoma; 89 µM in the experiment on SK-MEL-5 melanoma; 62.4 µM in the experiment on SN12C renal. Further, the TGI with ACHN renal and in the experiment with NCI-H23 lung was over 100 µM throughout.

Turning to `N#C/C(=C\c1ccc(Cl)cc1)n1nnc2cc(F)c(F)cc21`, the GI50 in the experiment on MDA-MB-435 is 1.76 µM; in the experiment on HCT-116 colon, 1.77 µM; in the experiment with HT29 colon it was 2.5 µM; in the experiment on SK-MEL-28 melanoma, 2.04 µM; in the experiment on SK-MEL-5 melanoma, 1.62 µM; in the experiment with SN12C renal, 1.89 µM. Moreover, the GI50 in the experiment with ACHN renal was 1.64 µM; with NCI-H23 lung, 1.73 µM. Further, the TGI in the experiment on MDA-MB-435 came out at 4.42 µM; in the experiment with HCT-116 colon it was 3.45 µM; in the experiment with HT29 colon it was 5.61 µM; with SK-MEL-28 melanoma, 4.38 µM; in the experiment with SK-MEL-5 melanoma, 3.04 µM; in the experiment on SN12C renal it was 4.02 µM. Also, the TGI came to 3.02 µM in the experiment on ACHN renal and 3.71 µM in the experiment with NCI-H23 lung.
